The values that follow come from patent US20230159510A1, “NOVEL PRMT5 INHIBITORS” (AMGEN INC., priority 2020, published 2023).

One assay concerns HCT116 MTAP null cells. Nature of the assay: HCT116 proliferation assay, MTAP null cells (CellTiter-Glo, 6 days). It is filed as cell-based. The settings on record: HCT116-MTAP null, 144 h, read-out: Protif_ HCT116-MTAP null IC50. In outline:
(§1)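 Seed cells in RPMI 1640 supplemented with 10% FBS and incubate overnight at 37° C under 5% CO2. Treat with serially diluted compound (threefold steps, 8 or 9 points, highest 1 or 10 µM) or DMSO alone, then quantify viability by luminescence.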

The subject of a further assay is HCT116 WT cells. Nature of the assay: HCT116 proliferation assay, WT cells (CellTiter-Glo, 6 days). It is filed as cell-based. Particulars: Homo sapiens, HCT-116, 144 h, read-out: Prolif_HCT116-WT IC50. The method, boiled down:
as §1
A general note: In ATP-based viability assays light output follows the ATP content of the culture.

A further assay deals with PRMT5/MEP50 (Homo sapiens, UniProt O14744). In words: MTase-Glo methyl transferase assay, Method A (Histone H4 peptide, 1 µM MTA, 24 h pre-incubation). The assay is classed as biochemical. Also noted: made in house. Particulars: read-out: PRMT5 MTase Glo Ki (nM, Meth. A). In outline: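 Luminescent SAH detection (MTase-Glo) after a 2 h room-temperature methylation of 1 µM biotinylated H4 (1-21) peptide by 10 nM PRMT5/MEP50 with 5 µM SAM, in 50 mM Tris pH 8.0.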
PRMT5/MEP50, sequence (O14744 whole entry): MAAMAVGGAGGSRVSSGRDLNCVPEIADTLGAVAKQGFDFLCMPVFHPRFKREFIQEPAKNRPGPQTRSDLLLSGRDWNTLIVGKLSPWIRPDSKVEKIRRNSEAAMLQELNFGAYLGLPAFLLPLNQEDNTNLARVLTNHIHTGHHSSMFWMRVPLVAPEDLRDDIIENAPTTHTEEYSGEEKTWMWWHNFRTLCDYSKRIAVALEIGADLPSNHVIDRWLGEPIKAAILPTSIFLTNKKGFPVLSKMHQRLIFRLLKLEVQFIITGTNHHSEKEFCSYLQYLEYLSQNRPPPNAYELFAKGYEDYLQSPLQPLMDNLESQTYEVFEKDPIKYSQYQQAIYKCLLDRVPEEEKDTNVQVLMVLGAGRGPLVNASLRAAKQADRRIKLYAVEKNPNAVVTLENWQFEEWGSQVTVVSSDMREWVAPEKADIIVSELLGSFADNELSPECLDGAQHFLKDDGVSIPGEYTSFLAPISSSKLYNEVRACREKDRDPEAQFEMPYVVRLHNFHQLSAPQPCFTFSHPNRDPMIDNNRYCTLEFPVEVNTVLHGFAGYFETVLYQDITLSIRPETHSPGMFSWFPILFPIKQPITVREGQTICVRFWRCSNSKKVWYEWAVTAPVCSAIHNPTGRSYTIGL
PRMT5/MEP50, sequence (Q9BQA1 whole entry partner): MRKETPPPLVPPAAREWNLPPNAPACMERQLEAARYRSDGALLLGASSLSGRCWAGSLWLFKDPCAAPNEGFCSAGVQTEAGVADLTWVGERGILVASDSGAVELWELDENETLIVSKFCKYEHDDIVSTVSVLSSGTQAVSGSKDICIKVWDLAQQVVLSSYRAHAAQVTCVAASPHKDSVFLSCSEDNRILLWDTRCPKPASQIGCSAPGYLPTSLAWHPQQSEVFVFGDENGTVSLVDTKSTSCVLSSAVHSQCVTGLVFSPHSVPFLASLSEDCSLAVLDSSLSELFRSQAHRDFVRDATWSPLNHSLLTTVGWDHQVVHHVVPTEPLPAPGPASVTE

In general, IC50 refers to the concentration at which inhibition is half-maximal. The Ki is the dissociation constant of the complex between target and ligand, obtained from inhibition or displacement.

Some results are limits rather than exact numbers.

On to `Cc1cc2cc(C(=O)N(Cc3ccc(C(F)(F)F)cn3)[C@@H](c3ncccn3)C3CC3)cnc2nc1N` [Example 372, 7-amino-N-((R)-cyclopropyl(2-pyrimidinyl)methyl)-6-methyl-N-((5-(trifluoromethyl)-2-pyridinyl)methyl)-1,8-naphthyridine-3-carboxamide], for which the results for the IC50 with HCT116 MTAP null cells and with HCT116 WT cells were 124 nM and 2410 nM, respectively. The Ki at PRMT5/MEP50 was determined as 0.33 nM.

With `Nc1nc2ncc(C(=O)N(Cc3ccc(C(F)(F)F)cn3)[C@@H](c3ncccn3)C3CC3)cc2cc1Br` [Example 373, 7-amino-6-bromo-N-((R)-cyclopropyl(2-pyrimidinyl)methyl)-N-((5-(trifluoromethyl)-2-pyridinyl)methyl)-1,8-naphthyridine-3-carboxamide], the values for the half-inhibitory concentration (IC50) in the assay with HCT116 MTAP null cells and with HCT116 WT cells were 159 nM and 1370 nM, respectively. The inhibitory constant (Ki) at PRMT5/MEP50 stood at 0.03 nM.

As to `Cc1cc2cc(C(=O)N(Cc3ccc(C(F)(F)F)cn3)[C@H](C)c3ncccn3)ncc2nc1N` [Example 374, 2-amino-3-methyl-N-((1R)-1-(2-pyrimidinyl)ethyl)-N-((5-(trifluoromethyl)-2-pyridinyl)methyl)-1,7-naphthyridine-6-carboxamide], the IC50 with HCT116 MTAP null cells stood at 341 nM; in the assay with HCT116 WT cells it was 8570 nM. Besides, the Ki on PRMT5/MEP50 worked out at 0.48 nM.

For the compound `CCOc1ccc(CN(C(=O)c2ccc3nc(N)c(C)cc3c2)[C@H](C)c2ncccn2)nc1` [Example 375, 2-amino-N-((5-ethoxy-2-pyridinyl)methyl)-3-methyl-N-((1R)-1-(2-pyrimidinyl)ethyl)-6-quinolinecarboxamide], the values for the IC50 in the assay with HCT116 MTAP null cells and with HCT116 WT cells were 64 nM and 2130 nM, respectively. Moreover, the inhibition constant Ki at PRMT5/MEP50 amounted to 0.87 nM.

As for `Cc1cc2cc(C(=O)N(Cc3ccc(OC4CC4)cn3)[C@H](C)c3ncccn3)ccc2nc1N` [Example 376, 2-amino-N-((5-(cyclopropyloxy)-2-pyridinyl)methyl)-3-methyl-N-((1R)-1-(2-pyrimidinyl)ethyl)-6-quinolinecarboxamide], the half-inhibitory concentration (IC50) with HCT116 MTAP null cells worked out at 62 nM; with HCT116 WT cells, 1510 nM. In addition, the Ki at PRMT5/MEP50 is 0.02 nM.

Take `CCOc1ccc(CN(C(=O)c2ccc3nc(N)c(C)cc3c2)[C@H](C)c2ncccn2)nn1` [Example 377, 2-amino-N-((6-ethoxy-3-pyridazinyl)methyl)-3-methyl-N-((1R)-1-(2-pyrimidinyl)ethyl)-6-quinolinecarboxamide]: the figures for the concentration for half-maximal inhibition (IC50) with HCT116 MTAP null cells and with HCT116 WT cells were 61 nM and 2560 nM, respectively. In addition, at PRMT5/MEP50, the Ki stood at 0.07 nM.

For the compound `Cc1cc2cc(C(=O)N(Cc3ccc(NCC(F)(F)F)nn3)[C@H](C)c3ncccn3)ccc2nc1N` [Example 378, 2-amino-3-methyl-N-((1R)-1-(2-pyrimidinyl)ethyl)-N-((6-((2,2,2-trifluoroethyl)amino)-3-pyridazinyl)methyl)-6-quinolinecarboxamide], the results for the IC50 in the assay with HCT116 MTAP null cells and with HCT116 WT cells were 340 nM and 6960 nM, respectively. The Ki on PRMT5/MEP50 was determined as 0.04 nM.

Consider `C[C@H](c1ncccn1)N(Cc1ccc(C(F)F)cn1)C(=O)c1cnc2nc(N)c(Cl)cc2c1` [Example 379], for which the IC50 was 541 nM in the assay with HCT116 MTAP null cells and > 10000 nM with HCT116 WT cells. At PRMT5/MEP50, the Ki is 0.89 nM.

Take `Cc1cc2cc(C(=O)N(Cc3ccc(C(F)F)nn3)[C@H](C)c3ncccn3)ccc2nc1N` [Example 380, 2-amino-N-((6-(difluoromethyl)-3-pyridazinyl)methyl)-3-methyl-N-((1R)-1-(2-pyrimidinyl)ethyl)-6-quinolinecarboxamide]: the IC50 in the assay with HCT116 MTAP null cells came to 79 nM; with HCT116 WT cells, 1670 nM. For the same compound, the Ki at PRMT5/MEP50 turned out to be 0.27 nM.

Take `C[C@H](c1ncccn1)N(Cc1ccc(C(F)F)cn1)C(=O)c1ccc2nc(N)c(Cl)cc2c1` [Example 381, 2-amino-3-chloro-N-((5-(difluoromethyl)-2-pyridinyl)methyl)-N-((1R)-1-(2-pyrimidinyl)ethyl)-6-quinolinecarboxamide]: the IC50 came out at 194 nM in the assay with HCT116 MTAP null cells and 8970 nM with HCT116 WT cells. The inhibition constant (Ki) at PRMT5/MEP50 amounted to 0.33 nM.
